ChEMBL document CHEMBL5608141, “Identification of compartment-specific drug sensitivities in CRC organoid-stroma co-cultures” (2024)

Key:
Type in all cases: functional, Homo sapiens
Design in all cases: dose or concentration left out as unconfirmed
Colon cancer organoid [1] = assay: Identification of compartment-specific drug sensitivities in O14 CRC organoid-stroma F14 CAF co-cultures. Organoid is transduced with Lucferase2-P2A-EGFP lentivirus, fibroblast with Renilla-dsRed lentivirus. Dual-Glo Luciferase assay is used to report viability data.
Colon cancer organoid [2] = assay: Identification of compartment-specific drug sensitivities in O20 CRC organoid-stroma F20 CAF co-cultures. Organoid is transduced with Lucferase2-P2A-EGFP lentivirus, fibroblast with Renilla-dsRed lentivirus. Dual-Glo Luciferase assay is used to report viability data.
Colon cancer organoid [3] = assay: Identification of compartment-specific drug sensitivities in O06 CRC organoid-stroma F06 CAF co-cultures. Organoid is transduced with Lucferase2-P2A-EGFP lentivirus, fibroblast with Renilla-dsRed lentivirus. Dual-Glo Luciferase assay is used to report viability data.
[4] = Transduced with Lucferase2-P2A-EGFP lentivirus
[5] = Transduced with Renilla-dsRed lentivirus

| SMILES | Cell Viability (Colon cancer organoid [1]; [4]) [%] | Cell Viability (Colon cancer organoid [1]; [5]) [%] | Cell Viability (Colon cancer organoid [2]; [4]) [%] | Cell Viability (Colon cancer organoid [2]; [5]) [%] | Cell Viability (Colon cancer organoid [3]; [4]) [%] | Cell Viability (Colon cancer organoid [3]; [5]) [%] |
| --- | --- | --- | --- | --- | --- | --- |
| Cn1cc(-c2[nH]c3cc(NC(=O)[C@H](N)C4CCCCC4)cc4c3c2C=NNC4=O)cn1 | 1.912 | 87.1489 | 23.2406 | 172.741 | 9.334 | 180.436 |
| CNC(=O)c1cc(C(=O)N[C@H]2[C@@H]3COC[C@@H]32)cc2c1O[C@H](CF)[C@H]2c1ccccc1 [GSK973] | 99.5313 | 122.198 | 97.9061 | 135.509 | 110.942 | 170.924 |
| CCc1cc2cc(NS(=O)(=O)c3ccc(C#N)cc3)ccc2n(CC)c1=O | 120.494 | 98.1699 | 196.577 | 99.0217 | 88.2132 | 102.933 |
| NS(=O)(=O)c1cc(NC(=O)C2(c3ccccc3Cl)CC2)ccc1Oc1cccc(Cl)c1 [BAY-207] | 120.584 | 143.533 | 177.814 | 111.752 | 102.145 | 97.9535 |
| COc1ccccc1S(=O)(=O)Nc1ccc2c(c1)CN(C)C(=O)N2 | 127.49 | 84.3735 | 112.453 | 99.8859 | 75.1061 | 112.248 |
| CCS(=O)(=O)Nc1ccc(Oc2ccc(F)cc2F)c(-c2cn(C)c(=O)c3[nH]ccc23)c1 [MIVEBRESIB] | 15.6468 | 169.821 | 5.758 | 64.2458 | 13.1828 | 272.686 |
| CN(C(=O)c1ccccc1)c1cc(N(C)c2ccc3c(c2)CCc2ccc(C(=O)NCCN4CCOCC4)cc2C3=O)ccc1F [FM-743] | 122.056 | 99.7372 | 87.6379 | 153.202 | 67.0526 | 69.6878 |
| CC[C@@H]1C(=O)N(C)c2cnc(Nc3ccc(C(=O)NC4CCN(C)CC4)cc3OC)nc2N1C1CCCC1 [BI-2536] | 2.9466 | 167.188 | 3.721 | 168.723 | 3.341 | 324.743 |
| O=C(/C=C/N1C[C@H]2C[C@@H]1CN2c1ccccn1)c1ccccc1O | 104.919 | 81.7789 | 99.3831 | 109.392 | 122.112 | 121.159 |
| CC1=CC(C)=[N+]2C1=C(CCCCc1cn(CC(=O)N3CCc4nc(NC(=O)[C@H]5CCN(C#N)C5)sc4C3)nn1)c1c(C)cc(C)n1[B-]2(F)F | 84.8013 | 97.3387 | 77.3724 | 101.216 | 125.029 | 111.523 |
| O=C(c1ccc(F)c(F)c1Nc1ccc(I)cc1F)N1CC(O)([C@@H]2CCCCN2)C1 [COBIMETINIB] | 13.8076 | 23.8651 | 4.065 | 77.761 | 5.143 | 42.4292 |
| Nc1nc(NCc2ccccc2)nc(-c2ccccc2CO)n1 [Ogerin] | 107.532 | 92.7829 | 81.1547 | 98.0569 | 100.001 | 107.856 |
| O=C(O)c1ccc2c(c1)nc(Nc1cccc(Cl)c1)c1ccncc12 [SILMITASERTIB] | 116.96 | 107.599 | 158.324 | 81.7658 | 108.166 | 80.6873 |
| CN(C)[C@@H]1CCN(c2cc(-c3ccccc3)nc3ccnn23)C1 [(R)-ZINC-3573] | 83.9602 | 82.5117 | 97.984 | 99.7993 | 122.992 | 121.371 |
| COc1cc(N2CCC(O)CC2)ccc1Nc1cc(Nc2ccccc2S(=O)(=O)C(C)C)c2cc[nH]c2n1 | 92.4485 | 85.3579 | 108.341 | 84.332 | 85.241 | 81.2438 |
| CC(C)(C)c1cc(NC(=O)Nc2ccc(-c3cn4c(n3)sc3cc(OCCN5CCOCC5)ccc34)cc2)no1 [QUIZARTINIB] | 48.7226 | 98.8717 | 58.8072 | 111.29 | 26.1053 | 134.448 |

| SMILES | Cell Viability (Colon cancer organoid [1]; [4]) [%] | Cell Viability (Colon cancer organoid [1]; [5]) [%] | Cell Viability (Colon cancer organoid [2]; [4]) [%] | Cell Viability (Colon cancer organoid [2]; [5]) [%] | Cell Viability (Colon cancer organoid [3]; [4]) [%] | Cell Viability (Colon cancer organoid [3]; [5]) [%] |
| --- | --- | --- | --- | --- | --- | --- |
| O=C(NC[C@H](O)CN1CCc2ccccc2C1)c1ccnc(NC2CCC2)c1 | 42.6769 | 91.2933 | 43.0801 | 143.569 | 33.1368 | 110.399 |
| O=c1nc(-c2ccccn2)sc2ccccc12 [BTZO-1] | 117.78 | 105.233 | 113.092 | 104.485 | 109.998 | 128.099 |
| COc1cc2c(cc1OCCCN1CCCC1)N=C(N)C21CCC1 | 87.6121 | 63.8775 | 76.3645 | 100.254 | 84.9948 | 83.704 |
| CCCc1cc(C)[nH]c(=O)c1CNC(=O)c1cc(-c2ccnc(N3CCN(C)CC3)c2)cc2c1cnn2C(C)C | 87.4027 | 100.827 | 56.2508 | 146.305 | 75.6598 | 125.188 |
| FC(F)(F)c1ccc2c(c1)nc(-c1cccnc1)n2C1CC1 [MSD-CYP11B2-Negative-control] | 73.196 | 81.5774 | 98.4614 | 114.7 | 103.115 | 83.1787 |
| CN(C)C(=O)Cn1cc(-c2ccc(-c3cncc4ccccc34)cc2)cn1 | 88.4928 | 18.4119 | 98.3492 | 25.8647 | 83.3121 | 47.4852 |
| O=C(Nc1cccnc1)c1cc(-c2ccnc(F)c2)ccc1OCc1ccccc1 | 142.728 | 107.033 | 125.357 | 104.766 | 87.3368 | 83.1264 |
| CC(C)(O)c1cncc(-c2nc3ccc(F)cc3n2C2CC2)c1 [MSD-CYP11B2] | 89.9575 | 101.392 | 80.182 | 128.543 | 83.611 | 134.058 |
| CCN1CCN(c2ccc(Nc3cc(N(C)C(=O)Nc4c(Cl)c(OC)cc(OC)c4Cl)ncn3)cc2)CC1 [INFIGRATINIB] | 55.6946 | 110.833 | 101.232 | 52.242 | 0.6967 | 125.024 |
| Cc1c(Nc2ccc(S(=O)(=O)N3CCN(C)CC3)cc2F)nc2ccc(-c3cnn(C4CC4)c3)cn2c1=O | 116.873 | 77.7436 | 100.446 | 149.535 | 106.525 | 138.146 |
| O=C(c1ccc(C(=O)N2CCC(N3CCCC3)CC2)c(Nc2ccccc2)c1)N1CCC(N2CCCC2)CC1 | 131.975 | 97.2232 | 130.421 | 96.2949 | 108.091 | 96.0319 |
| COc1ccccc1-c1cc(N2CCN(C(=O)OC(C)(C)C)CC2)c(N)nn1 | 120.209 | 94.5585 | 123.55 | 160.936 | 99.4085 | 102.712 |
| Cn1cc(-c2ccc3occ(-c4cccc(-c5ccncc5)c4)c3n2)cn1 | 87.0505 | 83.2978 | 65.7439 | 132.411 | 70.7683 | 132.305 |
| CCCCNc1ncc(-c2ccc(CN3CCOCC3)cn2)c(N[C@H]2CC[C@H](O)CC2)n1 | 12.9881 | 77.7799 | 8.867 | 223.767 | 22.8495 | 123.664 |
| CCOc1cc(N2CCC(O)CC2)ccc1Nc1ncc2c(n1)N(C1CCCC1)CCC(=O)N2C | 84.5477 | 160.888 | 51.7552 | 144.517 | 80.3618 | 151.464 |
| Cc1ccc(C(=O)Nc2cccc(C(F)(F)F)c2)cc1Nc1nc(-c2cccnc2)nc2c1cnn2C | 129.491 | 76.0508 | 143.016 | 123.917 | 60.2736 | 70.9034 |
